ChEMBL document CHEMBL1126835, “QSAR's from similarity matrices. Technique validation and application in the comparison of different similarity evaluation methods” (J Med Chem, 1993)

What was measured:
[1] = biological target: T1, Corticosteroid-binding globulin (Homo sapiens) (UniProt P08185)
T1 sequence (whole entry): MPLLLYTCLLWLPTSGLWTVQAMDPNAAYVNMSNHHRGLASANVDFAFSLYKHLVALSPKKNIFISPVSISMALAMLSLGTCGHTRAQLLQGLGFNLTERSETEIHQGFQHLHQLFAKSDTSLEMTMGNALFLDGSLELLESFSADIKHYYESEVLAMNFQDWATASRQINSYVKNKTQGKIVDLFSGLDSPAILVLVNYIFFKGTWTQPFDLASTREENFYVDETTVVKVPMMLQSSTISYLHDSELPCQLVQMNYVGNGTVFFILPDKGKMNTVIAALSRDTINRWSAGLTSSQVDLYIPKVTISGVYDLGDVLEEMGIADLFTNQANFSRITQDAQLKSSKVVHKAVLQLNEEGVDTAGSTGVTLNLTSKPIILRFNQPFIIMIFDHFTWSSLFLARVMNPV
Description: Binding affinity towards human corticosteroid binding globulin.

[2] = biological target: T2, Sex hormone-binding globulin (Homo sapiens) (UniProt P04278)
T2 sequence (whole entry): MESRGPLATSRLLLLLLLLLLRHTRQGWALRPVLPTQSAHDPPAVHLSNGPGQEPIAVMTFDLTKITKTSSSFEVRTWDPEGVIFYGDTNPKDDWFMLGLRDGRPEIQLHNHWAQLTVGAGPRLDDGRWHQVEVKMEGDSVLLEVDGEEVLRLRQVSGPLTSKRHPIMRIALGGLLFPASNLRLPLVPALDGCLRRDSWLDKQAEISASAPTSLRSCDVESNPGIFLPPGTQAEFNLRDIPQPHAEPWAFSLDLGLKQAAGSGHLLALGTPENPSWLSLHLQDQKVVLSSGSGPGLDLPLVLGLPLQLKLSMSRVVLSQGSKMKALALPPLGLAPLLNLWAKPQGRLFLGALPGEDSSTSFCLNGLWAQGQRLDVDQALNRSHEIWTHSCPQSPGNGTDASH
Description: Binding affinity towards human testosterone binding globulin.

[3] = Dissociation constant (pKa); type: physicochemical

`C[C@]12CCC3C4=C(CCC3C1CCC2=O)CC(=O)C=C4` (stereo not given in full) showed a Log 1/K [1] of -5 and a Log 1/K [2] of -8.18.
With `BrC1NC=CN1` the pKa [3] was 3.79.
`C1=CNC(c2ccccc2)N1` gave a pKa [3] of 6.48.
With `CC(=O)[C@@]1(O)CC[C@H]2[C@@H]3CCC4=CC(=O)CC[C@]4(C)[C@H]3CC[C@@]21C` the Log 1/K [1] was -7.74 and the Log 1/K [2] was -7.
In the case of `CC(=O)[C@H]1CC[C@H]2[C@@H]3CCC4=CC(=O)CC[C@]4(C)[C@H]3CC[C@]12C`, the Log 1/K [1] is reported as -7.38 and the Log 1/K [2] is reported as -6.94.
With `C[C@]12CCC(=O)C=C1CC[C@@H]1[C@@H]2CC[C@@]2(C)[C@H]1CC[C@]2(O)C(=O)CO` the Log 1/K [1] was -7.88 and the Log 1/K [2] was -7.2.
For `C[C@]12CCC(=O)C=C1CCC1C3CC[C@H](C(=O)CO)[C@@]34C[C@H](OC4O)C12` (stereo not given in full), the Log 1/K [1] was -6.28 and the Log 1/K [2] was -5.32.
`O=[N+]([O-])C1NC=CN1` gave a pKa [3] of -0.81.
In the case of `C[C@]12CCC(=O)C=C1CC[C@@H]1[C@@H]2[C@@H](O)C[C@@]2(C)[C@H]1CC[C@]2(O)C(=O)CO`, the Log 1/K [1] is reported as -7.88 and the Log 1/K [2] is reported as -6.2.
For `C[C@]12CC[C@H]3[C@@H](CCC4=CC(=O)CC[C@@]43C)[C@@H]1CC[C@@H]2C(=O)CO`, the Log 1/K [1] was -7.65 and the Log 1/K [2] was -7.38.
In the case of `C[C@]12CC[C@@H](O)C[C@H]1CC[C@@H]1[C@@H]2CC[C@]2(C)C(=O)CC[C@@H]12`, the Log 1/K [1] is reported as -5.22 and the Log 1/K [2] is reported as -6.15.
Work on `CSC1NC=CN1` yielded a pKa [3] of 5.95.
Work on `CN1C=CNC1Br` (stereo not given) yielded a pKa [3] of 3.82.
With `CC(=O)[C@H]1CC[C@H]2[C@@H]3CC=C4C[C@@H](O)CC[C@]4(C)[C@H]3CC[C@]12C` the Log 1/K [1] was -5.22 and the Log 1/K [2] was -7.15.
Work on `CN1C=CNC1F` (stereo not given) yielded a pKa [3] of 2.3.
With `ClC1NC=CN1` the pKa [3] was 3.55.
`FC1NC=CN1` showed a pKa [3] of 2.4.
For `CC1NC=CN1`, the pKa [3] was 7.86.
In the case of `C[C@]12C[C@H](O)[C@H]3[C@@H](CCC4=CC(=O)CC[C@@]43C)[C@@H]1CC[C@@H]2C(=O)CO`, the Log 1/K [1] is reported as -7.88 and the Log 1/K [2] is reported as -6.34.
`C[C@]12CC[C@H](O)CC1=CC[C@@H]1[C@@H]2CC[C@]2(C)C(=O)CC[C@@H]12` showed a Log 1/K [1] of -5 and a Log 1/K [2] of -7.82.
`CN1C=CNC1N` (stereo not given) showed a pKa [3] of 8.54.
With `CN1C=CNC1` the pKa [3] was 7.12.
For `NC1NC=CN1`, the pKa [3] was 8.46.
For `CCC1NC=CN1`, the pKa [3] was 7.73.
In the case of `C[C@]12CCC(=O)C=C1CC[C@@H]1[C@@H]2C(=O)C[C@@]2(C)[C@H]1CC[C@]2(O)C(=O)CO`, the Log 1/K [1] is reported as -6.89 and the Log 1/K [2] is reported as -6.43.
`C[C@]12CCC(=O)C=C1CC[C@@H]1[C@@H]2CC[C@]2(C)C(=O)CC[C@@H]12` showed a Log 1/K [1] of -5.76 and a Log 1/K [2] of -7.46.
`C1=CNCN1` gave a pKa [3] of 6.99.
Work on `CC(=O)[C@@]1(O)CC[C@H]2[C@@H]3CC=C4C[C@@H](O)CC[C@]4(C)[C@H]3CC[C@@]21C` yielded a Log 1/K [1] of -5 and a Log 1/K [2] of -6.36.
Compound `C1=CNC(c2ccncc2)N1` has a pKa [3] of 5.36.
For `CCCCc1cc2c(cn1)[nH]c1ccccc12`, the Log 1/K [1] was -5 and the Log 1/K [2] was -9.11.
